Counter-ions that a name gives are not always drawn. ± gives the standard error.
Legend:
621-102 (TSC2-deficient) = assay: relative viability vs DMSO; higher = less cytotoxic; conditions: serum: 10% FBS, 72 h
621-103 (TSC2-rescued) = assay: as above; conditions: serum: 10% FBS, 72 h
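Also: immortalized renal angiomyolipoma cells stably carrying empty vector or TSC2, dosed in 384-well plates in DMEM, viability normalized to vehicle-treated wells within each plate.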

Compound | relative viability (621-102 (TSC2-deficient); 0.0001 µM) [%] | relative viability (621-102 (TSC2-deficient); 0.001 µM) [%] | relative viability (621-102 (TSC2-deficient); 0.01 µM) [%] | relative viability (621-102 (TSC2-deficient); 0.1 µM) [%] | relative viability (621-102 (TSC2-deficient); 1 µM) [%] | relative viability (621-102 (TSC2-deficient); 10 µM) [%] | relative viability (621-103 (TSC2-rescued); 0.0001 µM) [%] | relative viability (621-103 (TSC2-rescued); 0.001 µM) [%] | relative viability (621-103 (TSC2-rescued); 0.01 µM) [%] | relative viability (621-103 (TSC2-rescued); 0.1 µM) [%] | relative viability (621-103 (TSC2-rescued); 1 µM) [%] | relative viability (621-103 (TSC2-rescued); 10 µM) [%]
NC1(Cc2ccc(Cl)cc2)CCN(c2ncnc3[nH]ccc23)CC1 | 65.2 ± 2.3 | 81 ± 1.2 | 81.4 ± 1.9 | 92.8 ± 5.6 | 77.3 ± 3.3 | 60.6 ± 1 | 114 ± 2.5 | 102 ± 1.4 | 111 ± 2.4 | 102 ± 5.5 | 96.3 ± 4.4 | 72 ± 0.83
COc1cc2nc(N3CCN(C(=O)C4COc5ccccc5O4)CC3)nc(N)c2cc1OC (stereo not given) [Doxazosin mesylate] | 101 ± 0.75 | 99.06 ± 0.17 | 102.2 ± 0.51 | 100 ± 2.2 | 99.87 ± 0.89 | 95.9 ± 2.9 | 98.4 ± 1.8 | 95.8 ± 1.5 | 108 ± 2.6 | 101 ± 3.2 | 100.5 ± 0.52 | 88.314 ± 0.032
O=C1CCc2cc(OCCCCc3nnnn3C3CCCCC3)ccc2N1 [Cilostazol] | 109 ± 1.2 | 102 ± 0.67 | 107.6 ± 0.99 | 109 ± 3 | 96.51 ± 0.85 | 101 ± 2.5 | 107.6 ± 0.22 | 100.9 ± 0.71 | 108 ± 1.6 | 104.6 ± 1 | 101 ± 3.3 | 97.51 ± 0.021
c1ccc2c(CC3=NCCN3)cccc2c1 [Naphazoline HCl] | 122 ± 2.4 | 109 ± 2.6 | 117 ± 3 | 111 ± 3.6 | 106.3 ± 0.15 | 112 ± 1.5 | 103 ± 2 | 105.1 ± 0.24 | 103 ± 1.7 | 99.2 ± 5.5 | 104 ± 0.12 | 101.3 ± 0.62
O=C(O)CC[C@H]1CC[C@@](c2cc(F)ccc2F)(S(=O)(=O)c2ccc(Cl)cc2)CC1 [MK-0752] | 108 ± 3.6 | 104 ± 3.3 | 102 ± 3.8 | 98.1 ± 2.5 | 101.6 ± 0.5 | 97 ± 5 | 115 ± 4.2 | 108 ± 0.7 | 107 ± 1.9 | 111.21 ± 0.076 | 106 ± 5.4 | 111 ± 1.3
CC(C)c1cc(-c2ccc(F)c3ccccc23)nc(N)n1 | 91.6 ± 2.5 | 107 ± 7 | 99.3 ± 4.8 | 94.6 ± 1.2 | 93.4 ± 2.1 | 97.22 ± 0.33 | 96.2 ± 4.6 | 92.2 ± 4.8 | 97.9 ± 1.5 | 107 ± 3.5 | 101.7 ± 0.2 | 98.4 ± 1.7
C[C@]12C=CC(=O)N[C@@H]1CC[C@@H]1[C@@H]2CC[C@]2(C)[C@@H](C(=O)Nc3cc(C(F)(F)F)ccc3C(F)(F)F)CC[C@@H]12 [Dutasteride (Avodart)] | 118 ± 1.5 | 116 ± 1.9 | 115 ± 2.4 | 96.4 ± 1.7 | 107.7 ± 0.56 | 98.5 ± 2.3 | 104 ± 1.4 | 105 ± 2.2 | 100.7 ± 0.37 | 101 ± 1.4 | 101 ± 1.5 | 94.61 ± 0.46
COc1ccccc1N1CCN(CC(O)COc2cccc3ccccc23)CC1 (stereo not given) [Naftopidil] | 106 ± 5.7 | 99.4 ± 2.5 | 101.3 ± 0.6 | 106 ± 5 | 104.5 ± 1 | 97.38 ± 0.86 | 114 ± 4.2 | 111.6 ± 0.22 | 112 ± 1.2 | 108 ± 1.9 | 102.2 ± 0.57 | 107 ± 2.7
C=CC(=O)N1CCC[C@@H](n2nc(-c3ccc(Oc4ccccc4)cc3)c3c(N)ncnc32)C1 | 108 ± 3.1 | 99.6 ± 2.7 | 102 ± 1.1 | 108 ± 4.7 | 112.7 ± 0.33 | 110 ± 4.6 | 99.6 ± 3.6 | 97.1 ± 1.7 | 98.8 ± 1.5 | 103 ± 3 | 108.4 ± 0.78 | 105 ± 3.9
O=S(=O)(c1cccc2cnccc12)N1CCCNCC1 [Fasudil HCl] | 95.7 ± 1.9 | 111.14 ± 0.069 | 100 ± 7.1 | 107.7 ± 0.97 | 110 ± 3.2 | 83.5 ± 3.1 | 102 ± 2.1 | 98.11 ± 0.26 | 99.94 ± 0.62 | 97.3 ± 1.3 | 97.052 ± 0.09 | 101.9 ± 0.26

— the supplement of paper PMC8960247
